Laboratory results taken from US5420335A, “Parenteral nutrients based on watersoluble glycerol bisacetoacetates” (priority 1993, dated 1995).

Legend:
[1] = in words; cited from earlier work
[2] = Overall evaluation as a parenteral nutrient; type: in vivo, rat (male Sprague-Dawley); conditions: in words
Method: Water was available ad libitum at all times.
The vein was then ligated dorsally to the catheter. […] Body weights were measured daily.
Infusate volume, oral food intake, body weight and urinary volume and total nitrogen were monitored daily for each rat. Infusate volume and food intake were determined by weighing the appropriate container at the start and end of each 24 hr. period. Measurements were recorded between 9 and 10 AM each day. At the end of the 7th day, rats were sacrificed, and blood and liver were harvested. Plasma was separated for measurement of free fatty acids, glucose, and ketone bodies. Liver was weighed and a sample was fixed in buffered formalin for gross histology.
The data were analyzed for significance by the one-way analysis of variance with repeated measures and comparing the effect of dietary treatment on each day. […] The null hypothesis was concluded invalid if p≤0.05. The analysis of variance was computed on a SAS statistical package.

| Molecule | enhance the absorption of certain agents in the intestine [1] | efficacy as parenteral nutrient / energy source [2] |
| --- | --- | --- |
| CC(=O)CC(=O)OCC1COC(C)(C)O1 (stereo not shown) [1,2-isopropylideneglyceryl 3-acetoacetate] | enhance the absorption of certain agents in the intestine |  |
| CC(=O)CC(=O)OCC(O)COC(=O)CC(C)=O [1,3-bisacetoacetylglycerol] | enhance the absorption of certain agents in the intestine |  |
| CC(=O)OCC1COC(C)(C)O1 (stereo not shown) [2,3-isopropylidene-1-acetate] | enhance the absorption of certain agents in the intestine |  |
| Partially Reduced Pentaacetoacetyl-glucose [Compound 3] |  | ineffective as parenteral nutrients |
